Results: patent US11739074B2, “Ras inhibitors” (Revolution Medicines, Inc., priority 2019, dated 2023)
Where two headings read alike, the source gives them in different places.

How the values were obtained:
AsPC-1 (K-Ras G12D) [1] = assay: Potency assay: pERK in AsPC-1 cells; type: cell-based; details: Homo sapiens
AsPC-1 (K-Ras G12D) [2] = assay: CellTiter-Glo cell viability assay, AsPC-1; type: cell-based; details: Homo sapiens, ASPC1, 120 h
Procedure, shortened: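 Direct compound addition to plated cells; 5-day exposure; ~30 min RT equilibration; CellTiter-Glo luminescence. Normalization: (sample/avg DMSO)*100; 4-parameter logistic curve fit.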

[3] = ASPC1, AsPC-1 cells, K-Ras G12D, read-out: pERK EC50 (AsPC-1 KRAS G12D)
[4] = AsPC-1, K-Ras G12D, 5-day treatment, read-out: AsPC-1 Cell Viability IC50
[5] = ASPC1, read-out: pERK EC50 (AsPC-1 KRAS G12D)
[6] = read-out: AsPC-1 Cell Viability IC50, AsPC-1, K-Ras G12D, 5-day treatment

Structure (SMILES) | EC50 (AsPC-1 (K-Ras G12D) [1]; [3]) | IC50 (AsPC-1 (K-Ras G12D) [2]; [4]) | EC50 (AsPC-1 (K-Ras G12D) [1]; [5]) | IC50 (AsPC-1 (K-Ras G12D) [2]; [6])
CCn1c(-c2cccnc2[C@H](C)OC)c2c3cc(ccc31)-c1csc(n1)C[C@H](NC(=O)[C@H](C(C)C)N(C)C(=O)N1CC(N(C)C(=O)[C@@H]3CN3)C1)C(=O)N1CCC[C@H](N1)C(=O)OCC(C)(C)C2 [Compound 219] | < 5 µM | 1000 to 10000 nM |  | 
CCn1c(-c2cccnc2[C@H](C)OC)c2c3cc(ccc31)-c1csc(n1)C[C@H](NC(=O)[C@H](C(C)C)N(C)C(=O)N(C)C1CN(C(=O)[C@H]3CN3)C1)C(=O)N1CCC[C@H](N1)C(=O)OCC(C)(C)C2 [Compound 220] | < 5 µM | 1000 to 10000 nM |  | 
CCn1c(-c2cccnc2[C@H](C)OC)c2c3cc(ccc31)-c1csc(n1)C[C@H](NC(=O)[C@H](C(C)C)N(C)C(=O)N(C)C1CN(C(=O)[C@@H]3CN3)C1)C(=O)N1CCC[C@H](N1)C(=O)OCC(C)(C)C2 [Compound 221] | < 5 µM | 1000 to 10000 nM |  | 
CCn1c(-c2cccnc2[C@H](C)OC)c2c3cc(ccc31)-c1csc(n1)C[C@H](NC(=O)[C@H](C(C)C)N(C)C(=O)N1CC[C@H](N(C)C(=O)[C@@H]3CN3)C1)C(=O)N1CCC[C@H](N1)C(=O)OCC(C)(C)C2 [Compound 229] | < 5 µM | 1000 to 10000 nM |  | 
CCn1c(-c2cccnc2[C@H](C)OC)c2c3cc(ccc31)-c1cc(O)cc(c1)C[C@H](NC(=O)[C@H](C(C)C)N(C)C(=O)[C@@H]1CCCN(C(=O)[C@H]3CN3)C1)C(=O)N1CCC[C@H](N1)C(=O)OCC(C)(C)C2 [Compound 237] | < 5 µM | 1000 to 10000 nM |  | 
CCn1c(-c2cccnc2[C@H](C)OC)c2c3cc(ccc31)-c1cc(O)cc(c1)C[C@H](NC(=O)[C@H](C(C)C)N(C)C(=O)[C@@H]1CCCN(C(=O)[C@@H]3CN3)C1)C(=O)N1CCC[C@H](N1)C(=O)OCC(C)(C)C2 [Compound 238] | < 5 µM | 1000 to 10000 nM |  | 
CCn1c(-c2cccnc2[C@H](C)OC)c2c3cc(ccc31)-c1cc(O)cc(c1)C[C@H](NC(=O)[C@@H](C(C)C)N(C)C(=O)[C@@]1(C)CCCN1C(=O)[C@@H]1CN1)C(=O)N1CCC[C@H](N1)C(=O)OCC(C)(C)C2 [Compound 242] | < 5 µM | 1000 to 10000 nM |  | 
CCn1c(-c2cccnc2[C@H](C)OC)c2c3cc(ccc31)-c1cc(O)cc(c1)C[C@H](NC(=O)[C@H](C(C)C)N(C)C(=O)[C@]13C[C@H]1CCN3C(=O)[C@H]1CN1)C(=O)N1CCC[C@H](N1)C(=O)OCC(C)(C)C2 [Compound 244] | < 5 µM | 1000 to 10000 nM |  | 
CCn1c(-c2cccnc2[C@H](C)OC)c2c3cc(ccc31)-c1cc(O)cc(c1)C[C@H](NC(=O)[C@H](C(C)C)N(C)C(=O)[C@H]1C[C@H]3CC[C@@H](C1)N3C(=O)[C@H]1CN1)C(=O)N1CCC[C@H](N1)C(=O)OCC(C)(C)C2 [Compound 245] | < 5 µM | 1000 to 10000 nM |  | 
CCn1c(-c2cccnc2[C@H](C)OC)c2c3cc(ccc31)-c1cc(O)cc(c1)C[C@H](NC(=O)[C@H](C(C)C)N(C)C(=O)[C@H]1C[C@H]3CC[C@@H](C1)N3C(=O)[C@@H]1CN1)C(=O)N1CCC[C@H](N1)C(=O)OCC(C)(C)C2 [Compound 246] | < 5 µM | 1000 to 10000 nM |  | 
CCn1c(-c2cccnc2[C@H](C)OC)c2c3cc(ccc31)-c1cc(O)cc(c1)C[C@H](NC(=O)[C@H](C(C)C)N(C)C(=O)[C@H]1CCCCN(C(=O)[C@H]3CN3)C1)C(=O)N1CCC[C@H](N1)C(=O)OCC(C)(C)C2 [Compound 247] | < 5 µM | 1000 to 10000 nM |  | 
CCn1c(-c2cccnc2[C@H](C)OC)c2c3cc(ccc31)-c1cc(O)cc(c1)C[C@H](NC(=O)[C@H](C(C)C)N(C)C(=O)N1CC[C@H](N(C)C(=O)[C@H]3CN3)C1)C(=O)N1CCC[C@H](N1)C(=O)OCC(C)(C)C2 [Compound 254] | < 5 µM | > 10000 nM |  | 
CCn1c(-c2cccnc2[C@H](C)OC)c2c3cc(ccc31)-c1cc(O)cc(c1)C[C@H](NC(=O)[C@H](C(C)C)N(C)C(=O)N1CC[C@H](N(C)C(=O)[C@@H]3CN3)C1)C(=O)N1CCC[C@H](N1)C(=O)OCC(C)(C)C2 [Compound 255] | < 5 µM | 1000 to 10000 nM |  | 
CCn1c(-c2cccnc2[C@H](C)OC)c2c3cc(ccc31)-c1cc(O)cc(c1)C[C@H](NC(=O)[C@H](C(C)C)N(C)C(=O)CN(C)C(=O)[C@@H]1CN1CCCN1CCCC1=O)C(=O)N1CCC[C@H](N1)C(=O)OCC(C)(C)C2 (stereo partly drawn) [Compound 269] |  |  | < 5 µM | 1000 to 10000 nM
CCn1c(-c2cccnc2[C@H](C)OC)c2c3cc(ccc31)-c1cc(O)cc(c1)C[C@H](NC(=O)[C@H](C(C)C)N(C)C(=O)CN(C)C(=O)[C@@H]1CN1CC(=O)N(C)C)C(=O)N1CCC[C@H](N1)C(=O)OCC(C)(C)C2 (stereo partly drawn) [Compound 271] |  |  | < 5 µM | > 10000 nM
CCn1c(-c2cccnc2[C@H](C)OC)c2c3cc(ccc31)-c1cc(O)cc(c1)C[C@H](NC(=O)[C@H](C(C)C)N(C)C(=O)CN(C)C(=O)[C@H]1CN1CCCN1CCOC1=O)C(=O)N1CCC[C@H](N1)C(=O)OCC(C)(C)C2 (stereo partly drawn) [Compound 272] |  |  | < 5 µM | 1000 to 10000 nM
CCn1c(-c2cccnc2[C@H](C)OC)c2c3cc(ccc31)-c1cc(O)cc(c1)C[C@H](NC(=O)[C@H](C(C)C)N(C)C(=O)CN(C)C(=O)[C@H]1CN1C1COC1)C(=O)N1CCC[C@H](N1)C(=O)OCC(C)(C)C2 (stereo partly drawn) [Compound 275] |  |  | < 5 µM | 1000 to 10000 nM
CCn1c(-c2cccnc2[C@H](C)OC)c2c3cc(ccc31)-c1cc(O)cc(c1)C[C@H](NC(=O)[C@H](C(C)C)N(C)C(=O)CN(C)C(=O)[C@@H]1CN1CC1COC1)C(=O)N1CCC[C@H](N1)C(=O)OCC(C)(C)C2 (stereo partly drawn) [Compound 278] |  |  | < 5 µM | 1000 to 10000 nM
CCn1c(-c2cccnc2[C@H](C)OC)c2c3cc(ccc31)-c1cc(O)cc(c1)C[C@H](NC(=O)[C@H](C(C)C)N(C)C(=O)CN(C)C(=O)[C@@H]1N[C@@H]1C1COC1)C(=O)N1CCC[C@H](N1)C(=O)OCC(C)(C)C2 [Compound 281] |  |  | < 5 µM | 100 to 1000 nM
CCn1c(-c2cccnc2[C@H](C)OC)c2c3cc(ccc31)-c1cc(O)cc(c1)C[C@H](NC(=O)[C@H](C(C)C)N(C)C(=O)CN(C)C(=O)[C@H]1N[C@H]1C1COC1)C(=O)N1CCC[C@H](N1)C(=O)OCC(C)(C)C2 [Compound 282] |  |  | < 5 µM | 1000 to 10000 nM
CCn1c(-c2cccnc2[C@H](C)OC)c2c3cc(ccc31)-c1cc(O)cc(c1)C[C@H](NC(=O)[C@H](C(C)C)N(C)C(=O)CN(C)C(=O)[C@H]1N[C@@H]1C1COC1)C(=O)N1CCC[C@H](N1)C(=O)OCC(C)(C)C2 [Compound 284] |  |  | < 5 µM | 1000 to 10000 nM
CCn1c(-c2cccnc2[C@H](C)OC)c2c3cc(ccc31)-c1cc(O)cc(c1)C[C@H](NC(=O)[C@H](C(C)C)N(C)C(=O)[C@H]1C[C@@H]3N[C@@H]3C1)C(=O)N1CCC[C@H](N1)C(=O)OCC(C)(C)C2 [Compound 286] | < 5 µM | 1000 to 10000 nM |  | 
CCn1c(-c2cccnc2[C@H](C)OC)c2c3cc(ccc31)-c1csc(n1)C[C@H](NC(=O)[C@H](C(C)C)N(C)C(=O)N(C)[C@H]1CCCN(C(=O)[C@H]3CN3)C1)C(=O)N1CCC[C@H](N1)C(=O)OCC(C)(C)C2 [Compound 295] | < 5 µM | 1000 to 10000 nM |  | 
CCn1c(-c2cccnc2[C@H](C)OC)c2c3cc(ccc31)-c1cc(O)cc(c1)C[C@H](NC(=O)[C@H](C(C)C)N1CC[C@]3(CCN(C(=O)[C@@H]4N[C@@H]4C4CC4)C3)C1=O)C(=O)N1CCC[C@H](N1)C(=O)OCC(C)(C)C2 [Compound 305] | < 5 µM | 100 to 1000 nM |  | 
CCN1C[C@@H]1C(=O)N(C)CC(=O)N(C)[C@H](C(=O)N[C@H]1Cc2cc(O)cc(c2)-c2ccc3c(c2)c(c(-c2cccnc2[C@H](C)OC)n3CC)CC(C)(C)COC(=O)[C@@H]2CCCN(N2)C1=O)C1CCCC1 (stereo partly drawn) [Compound 309] | < 5 µM | 10 to 100 nM |  | 
CCn1c(-c2cccnc2[C@H](C)OC)c2c3cc(ccc31)-c1csc(n1)C[C@H](NC(=O)[C@H](C(C)C)N(C)C(=O)N(C)[C@H]1CCN(C(=O)[C@@H]3CN3)C1)C(=O)N1CCC[C@H](N1)C(=O)OCC(C)(C)C2 [Compound 310] | < 5 µM | 1000 to 10000 nM |  | 
CCn1c(-c2cccnc2[C@H](C)OC)c2c3cc(ccc31)-c1cc(O)cc(c1)C[C@H](NC(=O)[C@H](C(C)C)N(C)C(=O)[C@]1(F)CCN(C(=O)[C@H]3CN3)C1)C(=O)N1CCC[C@H](N1)C(=O)OCC(C)(C)C2 [Compound 311] | < 5 µM | 100 to 1000 nM |  | 
CCn1c(-c2cccnc2[C@H](C)OC)c2c3cc(ccc31)-c1cc(O)cc(c1)C[C@H](NC(=O)[C@H](C1CCCC1)N(C)C(=O)CN(C)C(=O)[C@@H]1N[C@@H]1C1(F)CC1)C(=O)N1CCC[C@H](N1)C(=O)OCC(C)(C)C2 [Compound 314] | < 5 µM | 100 to 1000 nM |  | 
CCn1c(-c2cccnc2[C@H](C)OC)c2c3cc(ccc31)-c1cc(O)cc(c1)C[C@H](NC(=O)[C@H](C1CCCC1)N(C)C(=O)CN(C)C(=O)[C@H]1N[C@H]1C1(F)CC1)C(=O)N1CCC[C@H](N1)C(=O)OCC(C)(C)C2 [Compound 315] | < 5 µM | 100 to 1000 nM |  | 
CCn1c(-c2cccnc2[C@H](C)OC)c2c3cc(ccc31)-c1cc(O)cc(c1)C[C@H](NC(=O)[C@H](C1CCCC1)N(C)C(=O)[C@@H](C)N(C)C(=O)[C@@H]1N[C@@H]1C1CC1)C(=O)N1CCC[C@H](N1)C(=O)OCC(C)(C)C2 [Compound 327] | < 5 µM | 1000 to 10000 nM |  | 
